Results on one molecule are retold here after patent publication US20220411439A1, “POLYMORPHS OF A MACROCYCLIC KINASE INHIBITOR” (TURNING POINT THERAPEUTICS, INC., priority 2019, published 2022).

The target in one experiment is T1, RET (V778I) (Homo sapiens, UniProt P07949, V778I).
T1 construct: purchased Reaction Biology Corporation (contract assay)
The experiment is described as follows: Biochemical kinase assay. As to conditions: 10 μM ATP. The procedure:
(§1) The biochemical kinase assay was performed at Reaction Biology Corporation (www.reactionbiology.com, Malvern, Pa.) following the procedures described in the reference (Anastassiadis T, et al Nat Biotechnol. 2011, 29, 1039). Specific kinase/substrate pairs along with required cofactors were prepared in reaction buffer; 20 mM Hepes pH 7.5, 10 mM MgCl2, 1 mM EGTA, 0.02% Brij35, 0.02 mg/ml BSA, 0.1 mM Na3VO4, 2 mM DTT, 1% DMSO. Compounds were delivered into the reaction, followed ˜20 minutes later by addition of a mixture of ATP (Sigma, St. Louis Mo.) and ^33P ATP (Perkin Elmer, Waltham Mass.) to a final concentration of 10 μM. Reactions were carried out at room temperature for 120 min, followed by spotting of the reactions onto P81 ion exchange filter paper (Whatman Inc., Piscataway, N.J.). Unbound phosphate was removed by extensive washing of filters in 0.75% phosphoric acid. […] IC50 values and curve fits were obtained using Prism (GraphPad Software).

The target of the next experiment is T2, RET (L790F) (Homo sapiens, UniProt P07949, L790F).
T2 construct: purchased Reaction Biology Corporation (contract assay)
T2 sequence (P07949 29-1114 L790F): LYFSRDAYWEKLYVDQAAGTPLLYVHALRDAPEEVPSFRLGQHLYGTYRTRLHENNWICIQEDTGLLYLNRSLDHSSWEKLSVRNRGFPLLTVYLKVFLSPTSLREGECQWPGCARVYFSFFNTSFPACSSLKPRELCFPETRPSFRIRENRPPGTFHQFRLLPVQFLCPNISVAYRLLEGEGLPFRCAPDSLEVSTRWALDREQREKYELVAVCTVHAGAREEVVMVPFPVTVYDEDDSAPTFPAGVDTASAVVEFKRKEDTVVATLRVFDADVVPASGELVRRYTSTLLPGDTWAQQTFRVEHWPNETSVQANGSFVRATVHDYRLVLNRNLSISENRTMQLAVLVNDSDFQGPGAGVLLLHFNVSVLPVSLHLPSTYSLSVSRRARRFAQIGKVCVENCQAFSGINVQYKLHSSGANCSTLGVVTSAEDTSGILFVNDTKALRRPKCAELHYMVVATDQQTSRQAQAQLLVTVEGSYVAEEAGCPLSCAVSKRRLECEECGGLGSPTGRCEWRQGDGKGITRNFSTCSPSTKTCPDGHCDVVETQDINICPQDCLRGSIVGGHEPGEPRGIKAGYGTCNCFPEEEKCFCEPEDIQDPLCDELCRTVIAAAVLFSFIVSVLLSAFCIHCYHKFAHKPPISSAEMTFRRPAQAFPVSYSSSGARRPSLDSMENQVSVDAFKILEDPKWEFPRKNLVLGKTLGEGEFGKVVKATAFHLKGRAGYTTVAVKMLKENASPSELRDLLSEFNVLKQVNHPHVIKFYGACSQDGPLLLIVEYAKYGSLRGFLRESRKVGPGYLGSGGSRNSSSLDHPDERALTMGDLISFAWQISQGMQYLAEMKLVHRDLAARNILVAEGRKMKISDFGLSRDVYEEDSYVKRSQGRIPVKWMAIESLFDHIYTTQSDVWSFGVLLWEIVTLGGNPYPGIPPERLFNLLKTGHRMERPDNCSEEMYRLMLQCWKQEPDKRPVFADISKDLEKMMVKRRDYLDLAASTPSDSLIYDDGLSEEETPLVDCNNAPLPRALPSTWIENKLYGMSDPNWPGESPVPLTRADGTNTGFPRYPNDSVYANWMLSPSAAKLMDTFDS
The experiment in a line: Biochemical kinase assay. As to conditions: 10 μM ATP. The procedure: as §1

Another experiment has as its target T3, RET (G691S) (Homo sapiens, UniProt P07949, G691S).
T3 construct: purchased Reaction Biology Corporation (contract assay)
The experiment is described as follows: Biochemical kinase assay. As to conditions: 10 μM ATP. On the procedure:
as §1

For a further experiment, the target named is T4, RET (Y791F) (Homo sapiens, UniProt P07949, Y791F).
T4 construct: purchased Reaction Biology Corporation (contract assay)
T4 sequence (P07949 29-1114 Y791F): as the sequence (P07949 29-1114 L790F) above, with F762L, Y763F counted along it
The experiment is described as follows: Biochemical kinase assay. As to conditions: 10 μM ATP. On the procedure:
as §1

For another experiment, the target named is T5, RET-CCDC6 (PTC1) (Homo sapiens, UniProt P07949).
T5 construct: CCDC6 fragment (fusion partner); purchased Reaction Biology Corporation (contract assay); the other entry of the earlier key: CCDC6 (Q16204, Coiled-coil domain-containing protein 6)
T5 sequence (P07949 with tags, fused parts or gaps): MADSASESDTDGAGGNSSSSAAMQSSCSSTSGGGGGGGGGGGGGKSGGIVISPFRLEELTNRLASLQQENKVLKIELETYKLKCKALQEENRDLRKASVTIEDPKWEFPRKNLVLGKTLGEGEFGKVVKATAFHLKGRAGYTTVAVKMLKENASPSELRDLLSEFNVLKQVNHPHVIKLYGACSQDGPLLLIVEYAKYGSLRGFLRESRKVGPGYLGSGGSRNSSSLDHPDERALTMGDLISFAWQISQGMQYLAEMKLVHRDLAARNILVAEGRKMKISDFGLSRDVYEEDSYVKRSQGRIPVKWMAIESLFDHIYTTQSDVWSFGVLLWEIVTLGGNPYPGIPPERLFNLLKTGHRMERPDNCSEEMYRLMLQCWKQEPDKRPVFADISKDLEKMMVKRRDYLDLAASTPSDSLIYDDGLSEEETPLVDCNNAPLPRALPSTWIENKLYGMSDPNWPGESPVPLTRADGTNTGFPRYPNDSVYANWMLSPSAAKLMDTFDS
The experiment in a line: Biochemical kinase assay. As to conditions: 10 μM ATP. The procedure:
as §1

The next experiment has as its target T6, RET (V804L) (Homo sapiens, UniProt P07949, V804L).
T6 construct: purchased Reaction Biology Corporation (contract assay)
The experiment is described as follows: Biochemical kinase assay. To be noted: 10 μM ATP. On the procedure: as §1

Another experiment has as its target T7, RET (M918T) (Homo sapiens, UniProt P07949, M918T).
T7 construct: purchased Reaction Biology Corporation (contract assay)
The experiment is described as follows: Biochemical kinase assay. To be noted: 10 μM ATP. The procedure:
as §1

In a further experiment the target is T8, RET (A883F) (Homo sapiens, UniProt P07949, A883F).
T8 construct: purchased Reaction Biology Corporation (contract assay)
The experiment in a line: Biochemical kinase assay. As to conditions: 10 μM ATP. The procedure: as §1

The next experiment has as its target T9, RET (S904A) (Homo sapiens, UniProt P07949, S904A).
T9 construct: purchased Reaction Biology Corporation (contract assay)
The experiment in a line: Biochemical kinase assay. To be noted: 10 μM ATP. The procedure:
as §1

A further experiment has as its target T10, Ba/F3 KIF5B-RET_G810C (Homo sapiens, UniProt P07949, G810C, cells depend on it).
T10 construct: fused on or other part: P33176 (Kinesin-1 heavy chain)
The experiment in a line: Cell proliferation assay (CellTiter-Glo). In kind it is cell-based. To be noted: anti-cell proliferation, 72 hours; read-out: Ba/F3 KIF5B-RET_G810C IC50. An excerpt:
(§2) The KIF5B-RET gene was synthesized at GenScript and cloned into pCDH-CMV-MCS-EF1-Puro plasmid (System Biosciences, Inc). KIF5B-RET point mutation V804M and G810C were generated at GenScript by PCR and confirmed by sequencing. Ba/F3-KIF5B-RET wild type and mutant were generated by transducing Ba/F3 cells with lentivirus containing KIF5B-RET wide type or mutant. Stable cell lines were selected by puromycin treatment, followed by IL-3 withdrawal. Briefly, 5×10^6 Ba/F3 cells were transduced with lentivirus supernatant in the presence of 8 μg/mL protamine sulfate. The transduced cells were subsequently selected with 1 μg/mL puromycin in the presence of IL3-containing medium RPMI1640, plus 10% FBS. After 10-12 days of selection, the surviving cells were further selected for […] independent growth.
(§3) Two thousand cells per well were seeded in 384 well white plate for 24 hrs, and then treated with compounds for 72 hours (37° C., 5% CO2). Cell proliferation was measured using CellTiter-Glo luciferase-based ATP detection assay (Promega) following the manufactures's protocol. IC50 determinations were performed using GraphPad Prism software (GraphPad, Inc., San Diego, Calif.).
Background: ATP-based viability assays read luminescence as a measure of living cells.

The target of the next experiment is T11, Ba/F3 KIF5B-RET (Homo sapiens, UniProt P07949).
T11 construct: Ba/F3 KIF5B-RET IC50 (nM); other: anti-cell proliferation, 72 hours; fused on or other part: P33176 (Kinesin-1 heavy chain)
The experiment is described as follows: Cell proliferation assay (CellTiter-Glo). In kind it is cell-based. As to conditions: anti-cell proliferation, 72 hours; read-out: Ba/F3 KIF5B-RET IC50.
Source text: as §2, §3

In a further experiment the target is T12, Ba/F3 KIF5B-RET_V804M (Homo sapiens, UniProt P07949, V804M, cells depend on it).
T12 construct: fused on or other part: P33176 (Kinesin-1 heavy chain)
The experiment in a line: Cell proliferation assay (CellTiter-Glo). In kind it is cell-based. As to conditions: anti-cell proliferation, 72 hours; read-out: Ba/F3 KIF5B-RET_V804M IC50.
Source text: as §2, §3

The next experiment deals with T13, HCK (Homo sapiens, UniProt P08631).
T13 construct: purchased Reaction Biology Corporation (contract assay)
T13 sequence (P08631 whole entry): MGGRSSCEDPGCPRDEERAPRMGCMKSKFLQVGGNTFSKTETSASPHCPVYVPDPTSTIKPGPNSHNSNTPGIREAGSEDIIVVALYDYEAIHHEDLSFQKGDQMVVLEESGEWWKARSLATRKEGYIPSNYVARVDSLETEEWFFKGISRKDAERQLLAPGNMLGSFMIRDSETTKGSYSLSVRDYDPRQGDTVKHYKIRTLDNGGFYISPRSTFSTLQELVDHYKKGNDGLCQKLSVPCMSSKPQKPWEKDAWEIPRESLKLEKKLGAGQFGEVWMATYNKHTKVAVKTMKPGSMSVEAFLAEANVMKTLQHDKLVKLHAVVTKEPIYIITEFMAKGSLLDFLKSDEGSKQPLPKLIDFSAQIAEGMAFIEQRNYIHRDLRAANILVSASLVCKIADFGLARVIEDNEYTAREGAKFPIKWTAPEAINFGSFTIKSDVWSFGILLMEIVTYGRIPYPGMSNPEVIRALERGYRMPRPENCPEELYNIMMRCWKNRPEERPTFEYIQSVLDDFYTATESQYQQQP
The experiment in a line: Biochemical kinase assay. As to conditions: 10 μM ATP. The procedure:
as §1, with “Specific” for “The biochemical kinase assay was performed at Reaction Biology Corporation (www.reactionbiology.com, Malvern, Pa.) following the procedures described in the reference (Anastassiadis T, et al Nat Biotechnol. 2011, 29, 1039). Specific”

Another experiment concerns the target T14, LYN (Homo sapiens, UniProt P07948).
T14 construct: purchased Reaction Biology Corporation (contract assay)
The experiment in a line: Biochemical kinase assay. As to conditions: 10 μM ATP. On the procedure:
as §1, with “Specific” for “The biochemical kinase assay was performed at Reaction Biology Corporation (www.reactionbiology.com, Malvern, Pa.) following the procedures described in the reference (Anastassiadis T, et al Nat Biotechnol. 2011, 29, 1039). Specific”

The next experiment concerns the target T15, YES/YES1 (Homo sapiens, UniProt P07947).
T15 construct: purchased Reaction Biology Corporation (contract assay)
The experiment is described as follows: Biochemical kinase assay. As to conditions: 10 μM ATP. The procedure: as §1, with “Specific” for “The biochemical kinase assay was performed at Reaction Biology Corporation (www.reactionbiology.com, Malvern, Pa.) following the procedures described in the reference (Anastassiadis T, et al Nat Biotechnol. 2011, 29, 1039). Specific”

A further experiment concerns the target T16, FYN (Homo sapiens, UniProt P06241).
T16 construct: purchased Reaction Biology Corporation (contract assay)
The experiment in a line: Biochemical kinase assay. As to conditions: 10 μM ATP. On the procedure: as §1, with “Specific” for “The biochemical kinase assay was performed at Reaction Biology Corporation (www.reactionbiology.com, Malvern, Pa.) following the procedures described in the reference (Anastassiadis T, et al Nat Biotechnol. 2011, 29, 1039). Specific”

Another experiment concerns the target T17, RET (Homo sapiens, UniProt P07949).
T17 construct: purchased Reaction Biology Corporation (contract assay)
The experiment in a line: Biochemical kinase assay. To be noted: 10 μM ATP. The procedure: as §1, with “Specific” for “The biochemical kinase assay was performed at Reaction Biology Corporation (www.reactionbiology.com, Malvern, Pa.) following the procedures described in the reference (Anastassiadis T, et al Nat Biotechnol. 2011, 29, 1039). Specific”

In another experiment the target is T18, SRC (Homo sapiens, UniProt P12931).
T18 construct: purchased Reaction Biology Corporation (contract assay)
T18 sequence (P12931 whole entry): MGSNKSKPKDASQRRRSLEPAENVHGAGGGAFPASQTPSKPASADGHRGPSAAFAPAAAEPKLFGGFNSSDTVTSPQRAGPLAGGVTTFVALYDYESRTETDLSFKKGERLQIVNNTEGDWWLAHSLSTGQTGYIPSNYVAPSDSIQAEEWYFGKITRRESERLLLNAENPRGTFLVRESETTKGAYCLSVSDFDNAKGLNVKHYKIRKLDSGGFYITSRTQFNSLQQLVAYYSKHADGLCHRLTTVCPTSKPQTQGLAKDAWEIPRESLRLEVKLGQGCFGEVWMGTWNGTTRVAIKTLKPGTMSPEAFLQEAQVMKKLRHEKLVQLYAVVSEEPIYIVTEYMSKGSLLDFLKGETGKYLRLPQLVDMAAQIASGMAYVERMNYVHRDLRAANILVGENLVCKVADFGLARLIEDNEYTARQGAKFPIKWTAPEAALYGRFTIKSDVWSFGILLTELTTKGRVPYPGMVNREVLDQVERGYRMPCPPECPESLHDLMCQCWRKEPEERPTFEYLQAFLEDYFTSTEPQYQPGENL
The experiment is described as follows: Biochemical kinase assay. As to conditions: 10 μM ATP. The procedure:
as §1, with “Specific” for “The biochemical kinase assay was performed at Reaction Biology Corporation (www.reactionbiology.com, Malvern, Pa.) following the procedures described in the reference (Anastassiadis T, et al Nat Biotechnol. 2011, 29, 1039). Specific”

A further experiment has as its target T19, RET-NCOA4 (PTC3) (Homo sapiens, UniProt P07949).
T19 construct: NCOA4 fragment (fusion partner); purchased Reaction Biology Corporation (contract assay)
The experiment in a line: Biochemical kinase assay. As to conditions: 10 μM ATP. The procedure: as §1, with “Specific” for “The biochemical kinase assay was performed at Reaction Biology Corporation (www.reactionbiology.com, Malvern, Pa.) following the procedures described in the reference (Anastassiadis T, et al Nat Biotechnol. 2011, 29, 1039). Specific”

T14 sequence (P07948 whole entry): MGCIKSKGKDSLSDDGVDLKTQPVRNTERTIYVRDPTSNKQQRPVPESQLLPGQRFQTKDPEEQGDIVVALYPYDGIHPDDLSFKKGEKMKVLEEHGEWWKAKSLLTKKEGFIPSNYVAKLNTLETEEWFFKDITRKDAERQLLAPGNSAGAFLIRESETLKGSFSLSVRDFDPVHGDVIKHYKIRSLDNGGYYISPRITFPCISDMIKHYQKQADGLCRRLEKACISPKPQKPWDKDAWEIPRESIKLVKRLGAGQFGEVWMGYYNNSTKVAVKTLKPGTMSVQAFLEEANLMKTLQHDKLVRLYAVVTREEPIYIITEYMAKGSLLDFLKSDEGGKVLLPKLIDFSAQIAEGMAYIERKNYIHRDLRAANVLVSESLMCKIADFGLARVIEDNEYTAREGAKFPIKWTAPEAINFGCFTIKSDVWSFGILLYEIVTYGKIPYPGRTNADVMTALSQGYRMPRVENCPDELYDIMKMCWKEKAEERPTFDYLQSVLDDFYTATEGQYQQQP
T10 sequence (P07949 whole entry G810C, the tested form may be a part): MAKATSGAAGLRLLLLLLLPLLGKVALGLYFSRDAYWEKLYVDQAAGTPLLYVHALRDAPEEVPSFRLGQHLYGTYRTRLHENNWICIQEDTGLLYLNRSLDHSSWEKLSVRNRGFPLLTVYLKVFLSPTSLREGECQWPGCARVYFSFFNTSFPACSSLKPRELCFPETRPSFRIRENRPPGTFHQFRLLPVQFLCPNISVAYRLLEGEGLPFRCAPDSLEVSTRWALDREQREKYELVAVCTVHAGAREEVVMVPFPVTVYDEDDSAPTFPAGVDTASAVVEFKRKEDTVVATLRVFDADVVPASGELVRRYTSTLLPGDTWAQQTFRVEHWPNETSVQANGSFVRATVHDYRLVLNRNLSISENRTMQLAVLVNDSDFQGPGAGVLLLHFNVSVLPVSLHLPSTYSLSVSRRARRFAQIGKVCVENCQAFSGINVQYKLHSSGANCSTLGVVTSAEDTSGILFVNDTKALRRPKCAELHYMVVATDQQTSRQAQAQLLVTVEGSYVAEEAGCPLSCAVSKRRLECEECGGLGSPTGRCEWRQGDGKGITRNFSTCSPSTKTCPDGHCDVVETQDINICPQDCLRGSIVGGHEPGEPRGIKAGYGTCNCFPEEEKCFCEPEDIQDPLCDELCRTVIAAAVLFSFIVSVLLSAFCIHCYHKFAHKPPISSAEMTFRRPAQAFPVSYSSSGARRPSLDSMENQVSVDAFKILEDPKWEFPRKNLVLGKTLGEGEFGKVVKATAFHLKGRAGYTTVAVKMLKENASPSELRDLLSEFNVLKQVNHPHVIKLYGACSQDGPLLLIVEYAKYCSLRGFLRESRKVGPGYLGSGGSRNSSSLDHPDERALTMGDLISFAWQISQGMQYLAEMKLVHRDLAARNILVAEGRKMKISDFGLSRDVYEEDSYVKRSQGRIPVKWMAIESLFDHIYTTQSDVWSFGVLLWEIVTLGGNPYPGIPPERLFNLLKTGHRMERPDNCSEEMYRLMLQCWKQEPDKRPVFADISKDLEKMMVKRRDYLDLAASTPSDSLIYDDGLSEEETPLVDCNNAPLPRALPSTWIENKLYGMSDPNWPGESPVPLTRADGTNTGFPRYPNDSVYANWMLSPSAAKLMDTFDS
T7 sequence (P07949 29-1114 M918T): as the sequence (P07949 29-1114 L790F) above, with F762L, M890T counted along it
T15 sequence (P07947 whole entry): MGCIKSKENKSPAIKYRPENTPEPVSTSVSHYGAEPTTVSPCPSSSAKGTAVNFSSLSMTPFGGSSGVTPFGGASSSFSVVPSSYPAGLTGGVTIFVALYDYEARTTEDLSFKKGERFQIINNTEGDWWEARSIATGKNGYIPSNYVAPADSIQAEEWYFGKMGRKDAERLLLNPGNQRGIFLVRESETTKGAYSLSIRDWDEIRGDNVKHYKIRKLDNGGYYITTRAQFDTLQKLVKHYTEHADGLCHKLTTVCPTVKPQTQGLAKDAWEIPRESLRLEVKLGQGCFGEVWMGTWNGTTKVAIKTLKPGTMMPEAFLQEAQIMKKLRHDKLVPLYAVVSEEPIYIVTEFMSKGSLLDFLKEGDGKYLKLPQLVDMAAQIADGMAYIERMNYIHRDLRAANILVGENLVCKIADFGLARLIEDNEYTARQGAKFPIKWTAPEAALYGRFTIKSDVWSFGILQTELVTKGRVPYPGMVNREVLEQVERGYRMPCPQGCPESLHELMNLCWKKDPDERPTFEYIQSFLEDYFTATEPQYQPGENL
T9 sequence (P07949 29-1114 S904A): as the sequence (P07949 29-1114 L790F) above, with F762L, S876A counted along it
T3 sequence (P07949 29-1114 G691S): as the sequence (P07949 29-1114 L790F) above, with G663S, F762L counted along it
T6 sequence (P07949 29-1114 V804L): as the sequence (P07949 29-1114 L790F) above, with F762L, V776L counted along it

As to `C[C@H]1CNC(=O)c2cnn3cc4c(nc23)N(Cc2cc(F)cnc2O1)[C@@H]1CCC[C@@H]1O4` [Compound I, (3aR,11S,20aS)-7-fluoro-11-methyl-2,3,3a,12,13,20a-hexahydro-1H,5H-17,19-(metheno)cyclopenta[5,6][1,4]oxazino[3,4-i]pyrazolo[4,3-f]pyrido[3,2-l][1,4,8,10]oxatriazacyclotridecin-14(11H)-one], the IC50 (usually the concentration that inhibits the measured activity by half) is 0.1 nM at RET (V778I); 0.4 nM against RET (L790F); 1.8 nM against RET (G691S); 0.4 nM against RET (Y791F); 0.5 nM on RET-CCDC6 (PTC1); 6.2 nM against RET (V804L). The IC50 came out at 0.3 nM on RET (M918T); 1.2 nM against RET (A883F); 0.9 nM at RET (S904A); 2.7 nM against HCK; 2 nM against LYN; 2.6 nM on YES/YES1. Further, the IC50 against FYN is 1.9 nM; at RET it was 1 nM; on SRC it was 1.5 nM; on RET-NCOA4 (PTC3), 0.7 nM. Further, the GI50 at Ba/F3 KIF5B-RET_G810C was less than 15 nM; at Ba/F3 KIF5B-RET, 0.25 nM; at Ba/F3 KIF5B-RET_V804M, 1000 nM.
